Test results published in US10334859B2, “Method and pesticidal mixtures for controlling Pentatomidae pests” (BASF SE, priority 2014, dated 2019).
Read-outs that look alike come from different tables or passages of the source.

Legend:
[1] = test system: Septoria tritici; format: cell-based
[2] = test system: Botrytis cinerea; format: cell-based; conditions: concentration 4
[3] = test system: southern green stink bug (Nezara viridula); experiment: Test 5: control of southern green stink bug, dipped green beans and bugs; conditions: 10 ppm
[4] = test system: Alternaria solani; format: cell-based
[5] = test system: Leptosphaeria nodorum; format: cell-based
[6] = test system: Phytophthora infestans; format: cell-based
[7] = test system: southern green stink bug (Nezara viridula); experiment: Test 7: control of southern green stink bug on dipped Lima bean plants; format: in vivo; conditions: 50 ppm; mortality (sick + death insects) of second instar at 5 days
Protocol: Beauveria bassiana strain PPRI 5339 was at room temperature for one hour before use.
Seven days old Lima bean plants were dipped into each treatment. Once dried, plants were artificially infested with four second instar southern green stink bugs. Percentage of mortality (sick+ death insects) was evaluated at 5 days.

[8] = test system: Pyricularia oryzae; format: cell-based

## CCCN(CCOc1c(Cl)cc(Cl)cc1Cl)C(=O)n1ccnc1 [Prochloraz, prochloraz]
[1]; concentration 4
  Observed efficacy: 49%
[2]
  Observed efficacy: 39%

## Cn1cc(C(=O)Nc2ccccc2-c2cc(F)c(F)c(F)c2)c(C(F)F)n1 [Fluxapyroxad, fluxapyroxad]
[3]
  Observed efficacy: 0%

## Fc1ccc([C@]2(Cn3cncn3)O[C@H]2c2ccccc2Cl)cc1 (racemic) [Epoxiconazol, epoxiconazole]
[4]; concentration 0.25
  Observed efficacy: 36%
[1]; concentration 0.25
  Observed efficacy: 35%

## CON=C(C(=O)OC)c1ccccc1CON=C(C)c1cccc(C(F)(F)F)c1 [Trifloxystrobin, trifloxystrobin]
[1]; concentration 0.004
  Observed efficacy: 7%
[1]; concentration 0.016
  Observed efficacy: 67%

## CO/C=C(/C(=O)OC)c1ccccc1COc1cccc(C(F)(F)F)n1 [Picoxystrobin, picoxystrobin]
[4]; concentration 0.25
  Observed efficacy: 39%

## chlorothalonil
[2]
  Observed efficacy: 53%
[5]; concentration 1
  Observed efficacy: 39%

## C[C@@H]1C(=O)O[C@H]2C[C@@]34[C@H]5C[C@@H](C(C)(C)C)[C@]36[C@@H](OC(=O)[C@@H]6O)O[C@@]4(C(=O)O5)[C@]21O [Ginkgolide A]
[4]; concentration 16
  Observed efficacy: 0%
[4]; concentration 63
  Observed efficacy: 0%
[1]; concentration 63
  Observed efficacy: 16%
[5]; concentration 63
  Observed efficacy: 18%

## CC1COC(Cn2cncn2)(c2ccc(Oc3ccc(Cl)cc3)cc2Cl)O1 (stereo not shown) [Difenoconazol, difenoconazole]
[4]; concentration 1
  Observed efficacy: 0%
[5]; concentration 1
  Observed efficacy: 21%

## COC(=O)N(OC)c1ccccc1COc1ccn(-c2ccc(Cl)cc2)n1 [Pyraclostrobin, pyraclostrobin]
[3]
  Observed efficacy: 0%
[1]; concentration 0.004
  Observed efficacy: 59%

## CO/N=C(/C1=NOCCO1)c1ccccc1Oc1ncnc(Oc2ccccc2Cl)c1F [Fluoxastrobin, fluoxastrobin]
[4]; concentration 0.25
  Observed efficacy: 11%

## CCCCCCCCc1c(CC)nc2ncnn2c1N [Ametoctradin, ametoctradin]
[6]; 0.004 ppm
  Observed efficacy: 0%

## CC(C)(C)[C@]1(O)C[C@@H]2OC(=O)C[C@@]23C(=O)O[C@@H]2OC(=O)[C@H](O)[C@]213 [Bilobalide, (3aS,5aR,8aS,9R,10aR)-9-tert-butyl-8,9-dihydroxydihydro-9H-furo[2,3-b]furo[3′,2′;2,3]cyclopenta[1,2-c]furan-2,4,7(3H,8H)-trione]
[4]; concentration 16
  Observed efficacy: 0%
[4]; concentration 63
  Observed efficacy: 0%
[6]; 0.063 ppm
  Observed efficacy: 0%
[6]; 0.25 ppm
  Observed efficacy: 4%
[6]; 1 ppm
  Observed efficacy: 24%
[1]; concentration 1
  Observed efficacy: 6%
[1]; concentration 4
  Observed efficacy: 8%
[1]; concentration 16
  Observed efficacy: 9%
[7]
  Observed efficacy: 33%
[8]; concentration 4
  Observed efficacy: 3%
[8]; concentration 16
  Observed efficacy: 1%
[8]; concentration 63
  Observed efficacy: 5%
[5]; concentration 63
  Observed efficacy: 24%

## CC1(C(=O)Nc2ccc(O)c(Cl)c2Cl)CCCCC1 [Fenhexamid, fenhexamid]
[4]; concentration 4
  Observed efficacy: 46%
